Laboratory results as given in ChEMBL document CHEMBL1201862, “PubChem BioAssay data set” (2004).
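Dose response: 5 concentrations. Exposure: 48 h. Format: 96-well plates. Endpoint: linear interpolation; highest concentration if not reached. At the GI50, growth is halved.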 The source made the active and inactive calls. Rule as the data show it: active = GI50 up to about 1.1 µM and inactive = higher.

Legend:
Assay in all cases: NCI tumour cell line growth inhibition, 48 h
LXFL 529 = tested on: LXFL 529
PC-3 = tested on: PC-3
HOP-92 = tested on: HOP-92
EKVX = tested on: EKVX
SF-268 = tested on: SF-268
HOP-62 = tested on: HOP-62
COLO 205 = tested on: COLO 205
MCF7 = tested on: MCF7
CAKI-1 = tested on: CAKI-1
HCT-15 = tested on: HCT-15
CCRF-CEM = tested on: CCRF-CEM
TK-10 = tested on: TK-10
HCC 2998 = tested on: HCC 2998
Hs-578T = tested on: Hs-578T
HL-60 = tested on: HL-60
M14 = tested on: M14
RPMI-8226 = tested on: RPMI-8226
SNB-75 = tested on: SNB-75
UO-31 = tested on: UO-31
DU-145 = tested on: DU-145
SK-MEL-5 = tested on: SK-MEL-5
SK-MEL-2 = tested on: SK-MEL-2
MDA-MB-435 = tested on: MDA-MB-435
NCI-H460 = tested on: NCI-H460
HCT-116 = tested on: HCT-116
MOLT-4 = tested on: MOLT-4
NCI-H23 = tested on: NCI-H23
KM12 = tested on: KM12
UACC-257 = tested on: UACC-257
BT-549 = tested on: BT-549
OVCAR-4 = tested on: OVCAR-4
NCI-H522 = tested on: NCI-H522
NCI/ADR-RES = tested on: NCI/ADR-RES
ACHN = tested on: ACHN
UACC-62 = tested on: UACC-62
MDA-N = tested on: MDA-N
OVCAR-5 = tested on: OVCAR-5
NCI-H226 = tested on: NCI-H226
SNB-19 = tested on: SNB-19
HT-29 = tested on: HT-29
A549 = tested on: A549
T47D = tested on: T47D
Malme-3M = tested on: Malme-3M
LOX IMVI = tested on: LOX IMVI
MDA-MB-231 = tested on: MDA-MB-231
SW-620 = tested on: SW-620
A498 = tested on: A498
SF-295 = tested on: SF-295
OVCAR-8 = tested on: OVCAR-8
U-251 = tested on: U-251
SN12C = tested on: SN12C
786-0 = tested on: 786-0
OVCAR-3 = tested on: OVCAR-3
IGROV-1 = tested on: IGROV-1
SK-MEL-28 = tested on: SK-MEL-28
K562 = tested on: K562
SR = tested on: SR
RXF 393 = tested on: RXF 393
SF-539 = tested on: SF-539
SK-OV-3 = tested on: SK-OV-3

Nc1nc(=S)c2ncn(C3CC(O)C(CO)O3)c2[nH]1 (stereo not drawn)
GI50 (LXFL 529): > 100 µM (inactive)

COc1cccc2cc(C(=O)O)c(=O)oc12
GI50 (PC-3): > 100 µM (inactive) | GI50 (HOP-92): > 100 µM (inactive) | GI50 (EKVX): > 100 µM (inactive) | GI50 (SF-268): > 100 µM (inactive) | GI50 (HOP-62): > 100 µM (inactive) | GI50 (COLO 205): > 100 µM (inactive) | GI50 (MCF7): > 100 µM (inactive) | GI50 (CAKI-1): > 100 µM (inactive) | GI50 (HCT-15): > 100 µM | GI50 (CCRF-CEM): > 100 µM (inactive) | GI50 (TK-10): > 100 µM (inactive) | GI50 (HCC 2998): > 100 µM (inactive) | GI50 (Hs-578T): > 100 µM (inactive) | GI50 (HL-60): > 100 µM (inactive) | GI50 (M14): > 100 µM (inactive) | GI50 (RPMI-8226): > 100 µM (inactive) | GI50 (SNB-75): > 100 µM (inactive) | GI50 (UO-31): > 100 µM (inactive) | GI50 (DU-145): > 100 µM (inactive) | GI50 (SK-MEL-5): > 100 µM (inactive) | GI50 (SK-MEL-2): > 100 µM (inactive) | GI50 (MDA-MB-435): > 100 µM (inactive) | GI50 (NCI-H460): > 100 µM (inactive) | GI50 (HCT-116): > 100 µM (inactive) | GI50 (MOLT-4): > 100 µM (inactive) | GI50 (NCI-H23): > 100 µM (inactive) | GI50 (KM12): > 100 µM (inactive) | GI50 (UACC-257): > 100 µM (inactive) | GI50 (BT-549): > 100 µM (inactive) | GI50 (OVCAR-4): > 100 µM (inactive) | GI50 (NCI-H522): > 100 µM (inactive) | GI50 (NCI/ADR-RES): > 100 µM (inactive) | GI50 (ACHN): > 100 µM (inactive) | GI50 (UACC-62): 63.7 µM (inactive) | GI50 (MDA-N): > 100 µM (inactive) | GI50 (OVCAR-5): > 100 µM (inactive) | GI50 (NCI-H226): > 100 µM (inactive) | GI50 (SNB-19): > 100 µM (inactive) | GI50 (HT-29): > 100 µM (inactive) | GI50 (A549): > 100 µM (inactive) | GI50 (T47D): > 100 µM (inactive) | GI50 (Malme-3M): > 100 µM (inactive) | GI50 (LOX IMVI): > 100 µM (inactive) | GI50 (MDA-MB-231): > 100 µM (inactive) | GI50 (SW-620): > 100 µM (inactive) | GI50 (A498): > 100 µM (inactive) | GI50 (SF-295): > 100 µM (inactive) | GI50 (OVCAR-8): > 100 µM (inactive) | GI50 (U-251): > 100 µM (inactive) | GI50 (SN12C): > 100 µM (inactive) | GI50 (786-0): > 100 µM (inactive) | GI50 (OVCAR-3): > 100 µM (inactive) | GI50 (IGROV-1): > 100 µM (inactive) | GI50 (SK-MEL-28): > 100 µM (inactive) | GI50 (K562): > 100 µM (inactive) | GI50 (SR): > 100 µM (inactive) | GI50 (RXF 393): > 100 µM (inactive) | GI50 (SF-539): > 100 µM (inactive)

NCCCCC(N)C(=O)NCCNc1ccc(NCCNC(=O)C(N)CCCCN)c2c1C(=O)c1ccccc1C2=O (stereo not drawn)
GI50 (PC-3): 81.1 µM (inactive) | GI50 (HOP-92): 5.27 µM (inactive) | GI50 (EKVX): > 100 µM (inactive) | GI50 (SF-268): > 100 µM (inactive) | GI50 (HOP-62): 9.46 µM (inactive) | GI50 (COLO 205): > 59.8 µM (inactive) | GI50 (MCF7): > 100 µM (inactive) | GI50 (CAKI-1): > 84.7 µM (inactive) | GI50 (HCT-15): > 83.8 µM | GI50 (CCRF-CEM): 31.9 µM (inactive) | GI50 (TK-10): > 94.4 µM (inactive) | GI50 (HCC 2998): 16.4 µM (inactive) | GI50 (Hs-578T): 8.38 µM (inactive) | GI50 (HL-60): > 95.5 µM (inactive) | GI50 (M14): > 100 µM (inactive) | GI50 (RPMI-8226): 31.8 µM (inactive) | GI50 (SNB-75): 43.2 µM (inactive) | GI50 (UO-31): 32.3 µM (inactive) | GI50 (DU-145): > 100 µM (inactive) | GI50 (SK-MEL-5): > 100 µM (inactive) | GI50 (SK-MEL-2): > 100 µM (inactive) | GI50 (MDA-MB-435): 98.6 µM (inactive) | GI50 (NCI-H460): 9.06 µM (inactive) | GI50 (HCT-116): 17.3 µM (inactive) | GI50 (MOLT-4): 4.39 µM (inactive) | GI50 (NCI-H23): > 65.8 µM (inactive) | GI50 (KM12): > 81.3 µM (inactive) | GI50 (UACC-257): > 100 µM (inactive) | GI50 (BT-549): 6.78 µM (inactive) | GI50 (OVCAR-4): > 100 µM (inactive) | GI50 (NCI-H522): 3.56 µM (inactive) | GI50 (NCI/ADR-RES): 28.2 µM (inactive) | GI50 (ACHN): 35.6 µM (inactive) | GI50 (UACC-62): > 100 µM (inactive) | GI50 (MDA-N): > 100 µM (inactive) | GI50 (OVCAR-5): > 74.3 µM (inactive) | GI50 (NCI-H226): > 21.7 µM (inactive) | GI50 (SNB-19): > 36.9 µM (inactive) | GI50 (HT-29): 50.7 µM (inactive) | GI50 (SK-OV-3): 34.4 µM (inactive) | GI50 (A549): 63 µM (inactive) | GI50 (T47D): > 100 µM (inactive) | GI50 (Malme-3M): > 100 µM (inactive) | GI50 (LOX IMVI): 9.35 µM (inactive) | GI50 (MDA-MB-231): 34 µM (inactive) | GI50 (SW-620): 71.8 µM (inactive) | GI50 (A498): 46.5 µM (inactive) | GI50 (SF-295): > 100 µM (inactive) | GI50 (OVCAR-8): 5.9 µM (inactive) | GI50 (U-251): 35 µM (inactive) | GI50 (SN12C): 4.11 µM (inactive) | GI50 (786-0): 7.41 µM (inactive) | GI50 (OVCAR-3): > 100 µM (inactive) | GI50 (IGROV-1): > 100 µM (inactive) | GI50 (SK-MEL-28): > 100 µM (inactive) | GI50 (K562): > 33.4 µM (inactive) | GI50 (SR): 4.91 µM (inactive) | GI50 (RXF 393): 9.86 µM (inactive) | GI50 (SF-539): 7.62 µM (inactive)
